{"source": "BindingDB's records for doi:10.1021/jm0102203", "about": "(Glaxosmithkline, 2001)", "data": [{"assay": "Ability to inhibit Human cytomegalovirus (HCMV) protease activity", "units": {"IC50": "µM"}, "values": [{"compound": "C[C@@H]1C(=O)N(c2ccc([N+](=O)[O-])cc2[N+](=O)[O-])[C@H]2CCN(C(=O)OCc3ccccc3)C12", "note": "(stereo partly drawn) [4-(2,4-Dinitro-phenyl)-6-methyl-5-oxo-hexahydro-pyrrolo[3,2-b]pyrrole-1-carboxylic acid benzyl ester]", "IC50": 500}, {"compound": "CC(=O)C=CN1C(=O)[C@@H](C)C2[C@@H]1CCN2C(=O)OCc1ccccc1", "note": "(stereo partly drawn) [6-Methyl-5-oxo-4-(3-oxo-but-1-enyl)-hexahydro-pyrrolo[3,2-b]pyrrole-1-carboxylic acid benzyl ester]", "IC50": "> 500"}, {"compound": "C[C@@H]1C(=O)N(C(=O)n2cccc2)[C@H]2CCN(C(=O)OCc3ccccc3)C12", "note": "(stereo partly drawn) [6-Methyl-5-oxo-4-(pyrrole-1-carbonyl)-hexahydro-pyrrolo[3,2-b]pyrrole-1-carboxylic acid benzyl ester]", "IC50": 250}]}]}
